Assay results: patent US8653263B2 (Janssen Pharmaceutica, priority 2009, dated 2014)
pKi: −log10 of the molar value.

Target: human orexin-2 receptor (Homo sapiens (Human), UniProt O43614)
Test: Human orexin 2 receptor radioligand binding ([3H]-EMPA competition)
Conditions: HEK293 cells stably expressing human orexin-2 receptor; [3H]-EMPA 5 nM final; apparent Ki=IC50/(1+C/Kd), Kd=2 nM; read-out: OR 2 Ki

Chain of human orexin-2 receptor (O43614 whole entry): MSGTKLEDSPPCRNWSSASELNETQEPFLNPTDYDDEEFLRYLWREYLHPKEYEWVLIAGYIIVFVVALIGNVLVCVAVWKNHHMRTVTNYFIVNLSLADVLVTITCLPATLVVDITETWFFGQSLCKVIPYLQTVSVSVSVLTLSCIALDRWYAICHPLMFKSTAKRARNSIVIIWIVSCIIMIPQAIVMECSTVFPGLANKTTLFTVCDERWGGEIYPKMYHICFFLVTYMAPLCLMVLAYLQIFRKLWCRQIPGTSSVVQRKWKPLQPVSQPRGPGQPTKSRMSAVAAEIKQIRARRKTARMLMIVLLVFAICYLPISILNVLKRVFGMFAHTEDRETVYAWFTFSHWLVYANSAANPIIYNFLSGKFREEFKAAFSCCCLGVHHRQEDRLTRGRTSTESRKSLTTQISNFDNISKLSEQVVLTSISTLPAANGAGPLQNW

SMILES	pKi
COc1cc(N2CC3CN(C(=O)c4c(F)cccc4-n4nccn4)CC3C2)nc(N(C)C)n1 (stereo not drawn) [Example 1, 4-[5-{[2-Fluoro-6-(2H-1,2,3-triazol-2-yl)phenyl]carbonyl}hexahydropyrrolo[3,4-c]pyrrol-2(1H)-yl]-6-methoxy-N,N-dimethylpyrimidin-2-amine]	7.43
CN(C)c1cc(N2CC3CN(C(=O)c4ccccc4-n4nccn4)CC3C2)nc(C(F)(F)F)n1 (stereo not drawn) [Example 2, N,N-Dimethyl-6-[5-{[2-(2H-1,2,3-triazol-2-yl)phenyl]carbonyl}hexahydropyrrolo[3,4-c]pyrrol-2(1H)-yl]-2-(trifluoromethyl)pyrimidin-4-amine]	7.48
CN(C)c1cc(N2CC3CN(C(=O)c4c(F)cccc4-n4nccn4)CC3C2)nc(C(F)(F)F)n1 (stereo not drawn) [Example 3, 6-[5-{[2-Fluoro-6-(2H-1,2,3-triazol-2-yl)phenyl]carbonyl}hexahydropyrrolo[3,4-c]pyrrol-2(1H)-yl]-N,N-dimethyl-2-(trifluoromethyl)pyrimidin-4-amine]	7.38
COc1cc(N2CC3CN(C(=O)c4cc(F)ccc4-n4nccn4)CC3C2)nc(N(C)C)n1 (stereo not drawn) [Example 4, 4-[5-{[5-Fluoro-2-(2H-1,2,3-triazol-2-yl)phenyl]carbonyl}hexahydropyrrolo[3,4-c]pyrrol-2(1H)-yl]-6-methoxy-N,N-dimethylpyrimidin-2-amine]	7.19
COc1cc(N2CC3CN(C(=O)c4ccccc4-n4nccn4)CC3C2)nc(N(C)C)n1 (stereo not drawn) [Example 5, 4-Methoxy-N,N-dimethyl-6-[5-{[2-(2H-1,2,3-triazol-2-yl)phenyl]carbonyl}hexahydropyrrolo-[3,4-c]pyrrol-2(1H)-yl]pyrimidin-2-amine]	7.85
CN(C)c1cc(N2CC3CN(C(=O)c4ccc(F)cc4-n4nccn4)CC3C2)nc(C(F)(F)F)n1 (stereo not drawn) [Example 6, 6-[5-{[4-Fluoro-2-(2H-1,2,3-triazol-2-yl)phenyl]carbonyl}hexahydropyrrolo[3,4-c]pyrrol-2(1H)-yl]-N,N-dimethyl-2-(trifluoromethyl)pyrimidin-4-amine]	7.17
COc1cc(N2CC3CN(C(=O)c4ccc(F)cc4-n4nccn4)CC3C2)nc(N(C)C)n1 (stereo not drawn) [Example 7, 4-[5-{[4-Fluoro-2-(2H-1,2,3-triazol-2-yl)phenyl]carbonyl}hexahydropyrrolo[3,4-c]pyrrol-2(1H)-yl]-6-methoxy-N,N-dimethylpyrimidin-2-amine]	7.38
Cc1cc(C)nc(N2CC3CN(C(=O)c4sccc4-n4cccc4)CC3C2)n1 (stereo not drawn) [Example 8, 2-(4,6-Dimethylpyrimidin-2-yl)-5-{[3-(1H-pyrrol-1-yl)thiophen-2-yl]carbonyl}octahydro-pyrrolo[3,4-c]pyrrole]	6.27
CN(C)c1cc(N2CC3CN(C(=O)c4cc(F)ccc4-n4nccn4)CC3C2)nc(C(F)(F)F)n1 (stereo not drawn) [Example 9, 6-[5-{[5-Fluoro-2-(2H-1,2,3-triazol-2-yl)phenyl]carbonyl}hexahydropyrrolo[3,4-c]pyrrol-2(1H)-yl]-N,N-dimethyl-2-(trifluoromethyl)pyrimidin-4-amine]	7.00
Cc1cc(C)nc(N2CC3CN(C(=O)c4ccnn4-c4ccccc4)CC3C2)n1 (stereo not drawn) [Example 10, 2-(4,6-Dimethylpyrimidin-2-yl)-5-[(1-phenyl-1H-pyrazol-5-yl)carbonyl]octahydropyrrolo[3,4-c]pyrrole]	6.77
Cc1cc(C)nc(N2CC3CN(C(=O)c4sccc4-c4ccccc4)CC3C2)n1 (stereo not drawn) [Example 12, 2-(4,6-Dimethylpyrimidin-2-yl)-5-[(3-phenylthiophen-2-yl)carbonyl]octahydropyrrolo[3,4-c]pyrrole]	7.34
Cc1cc(C)nc(N2CC3CN(C(=O)c4occc4-c4ccccc4)CC3C2)n1 (stereo not drawn) [Example 13, 2-(4,6-Dimethylpyrimidin-2-yl)-5-[(3-phenylfuran-2-yl)carbonyl]octahydropyrrolo[3,4-c]pyrrole]	7.05
Cc1cc(C)nc(N2CC3CN(C(=O)c4ccccc4-c4nnc[nH]4)CC3C2)n1 (stereo not drawn) [Example 14, 2-(4,6-Dimethylpyrimidin-2-yl)-5-{[2-(1H-1,2,4-triazol-5-yl)phenyl]carbonyl}octahydro-pyrrolo[3,4-c]pyrrole]	7.55
COc1ccc(C(=O)N2CC3CN(c4nc5ccc(F)cc5s4)CC3C2)c(OC)c1 (stereo not drawn) [Example 16, 2-{5-[(2,4-Dimethoxyphenyl)carbonyl]hexahydropyrrolo[3,4-c]pyrrol-2(1H)-yl}-6-fluoro-1,3-benzothiazole]	6.52
COc1ccc(C(=O)N2CC3CN(c4nc5ccccc5s4)CC3C2)c(OC)c1 (stereo not drawn) [Example 17, 2-{5-[(2,4-Dimethoxyphenyl)carbonyl]hexahydropyrrolo[3,4-c]pyrrol-2(1H)-yl}-1,3-benzothiazole]	6.14
O=C(c1ccccc1-n1cccn1)N1CC2CN(c3cnc4ccccc4n3)CC2C1 (stereo not drawn) [Example 18, 2-[5-{[2-(1H-Pyrazol-1-yl)phenyl]carbonyl}hexahydropyrrolo[3,4-c]pyrrol-2(1H)-yl]quinoxaline]	6.28
O=C(c1ccccc1-c1cccs1)N1CC2CN(c3cnc4ccccc4n3)CC2C1 (stereo not drawn) [Example 19, 2-{5-[(2-Thiophen-2-ylphenyl)carbonyl]hexahydropyrrolo[3,4-c]pyrrol-2(1H)-yl}quinoxaline]	7.62
O=C(c1cccc2c1OCCO2)N1CC2CN(c3nccc(-c4ccccc4)n3)CC2C1 (stereo not drawn) [Example 21, 2-(2,3-Dihydro-1,4-benzodioxin-5-ylcarbonyl)-5-(4-phenylpyrimidin-2-yl)octahydropyrrolo[3,4-c]pyrrole]	6.45

SMILES	pKi
O=C(c1ccccc1-c1cccs1)N1CC2CN(c3nccc(-c4ccccc4)n3)CC2C1 (stereo not drawn) [Example 22, 2-(4-Phenylpyrimidin-2-yl)-5-[(2-thiophen-2-ylphenyl)carbonyl]octahydro-pyrrolo[3,4-c]pyrrole]	7.15
O=C(c1ccccc1-n1cccn1)N1CC2CN(c3nccc(-c4ccccc4)n3)CC2C1 (stereo not drawn) [Example 23, 2-(4-Phenylpyrimidin-2-yl)-5-{[2-(1H-pyrazol-1-yl)phenyl]carbonyl}octahydro-pyrrolo[3,4-c]pyrrole]	6.44
O=C(c1ccccc1-n1cccc1)N1CC2CN(c3nccc(-c4ccccc4)n3)CC2C1 (stereo not drawn) [Example 24, 2-(4-Phenylpyrimidin-2-yl)-5-{[2-(1H-pyrrol-1-yl)phenyl]carbonyl}octahydro-pyrrolo[3,4-c]pyrrole]	6.38
Cc1ccc2ccccc2c1C(=O)N1CC2CN(c3nccc(-c4ccccc4)n3)CC2C1 (stereo not drawn) [Example 25, 2-[(2-Methylnaphthalen-1-yl)carbonyl]-5-(4-phenylpyrimidin-2-yl)octahydropyrrolo[3,4-c]pyrrole]	6.96
N#Cc1ccccc1C(=O)N1CC2CN(c3cnc4ccccc4n3)CC2C1 (stereo not drawn) [Example 26, 2-(5-Quinoxalin-2-yl-hexahydro-pyrrolo[3,4-c]pyrrole-2-carbonyl)-benzonitrile]	5.05
O=C(c1ccccc1-n1cccc1)N1CC2CN(c3cnc4ccccc4n3)CC2C1 (stereo not drawn) [Example 27, 2-[5-{[2-(1H-Pyrrol-1-yl)phenyl]carbonyl}hexahydropyrrolo[3,4-c]pyrrol-2(1H)-yl]quinoxaline]	6.13
O=C(c1ccccc1-c1ccc(F)cc1)N1CC2CN(c3cnc4ccccc4n3)CC2C1 (stereo not drawn) [Example 28, 2-{5-[(4′-Fluorobiphenyl-2-yl)carbonyl]hexahydropyrrolo[3,4-c]pyrrol-2(1H)-yl}quinoxaline]	6.24
O=C(c1ccccc1-c1cccc(F)c1)N1CC2CN(c3cnc4ccccc4n3)CC2C1 (stereo not drawn) [Example 29, 2-{5-[(3′-Fluorobiphenyl-2-yl)carbonyl]hexahydropyrrolo[3,4-c]pyrrol-2(1H)-yl}quinoxaline]	6.87
Cc1ccccc1C(=O)N1CC2CN(c3cnc4ccccc4n3)CC2C1 (stereo not drawn) [Example 30, 2-{5-[(2-Methylphenyl)carbonyl]hexahydropyrrolo[3,4-c]pyrrol-2(1H)-yl}quinoxaline]	6.10
O=C(c1ccccc1-c1ccccc1)N1CC2CN(c3nccc(-c4ccco4)n3)CC2C1 (stereo not drawn) [Example 31, 2-(Biphenyl-2-ylcarbonyl)-5-(4-furan-2-ylpyrimidin-2-yl)octahydropyrrolo[3,4-c]pyrrole]	6.37
Cc1ccnc(N2CC3CN(C(=O)c4ccccc4-c4cccs4)CC3C2)n1 (stereo not drawn) [Example 32, 2-(4-Methylpyrimidin-2-yl)-5-[(2-thiophen-2-ylphenyl)carbonyl]octahydro-pyrrolo[3,4-c]pyrrole]	7.33
O=C(c1ccccc1-c1cccs1)N1CC2CN(c3ccc4ccccc4n3)CC2C1 (stereo not drawn) [Example 33, 2-{5-[(2-Thiophen-2-ylphenyl)carbonyl]hexahydropyrrolo[3,4-c]pyrrol-2(1H)-yl}quinoline]	6.60
O=C(c1ccccc1-c1cccs1)N1CC2CN(c3nccc(-c4ccco4)n3)CC2C1 (stereo not drawn) [Example 34, 2-(4-Furan-2-ylpyrimidin-2-yl)-5-[(2-thiophen-2-ylphenyl)carbonyl]octahydro-pyrrolo[3,4-c]pyrrole]	7.10
CCc1ccccc1C(=O)N1CC2CN(c3cnc4ccccc4n3)CC2C1 (stereo not drawn) [Example 35, 2-{5-[(2-Ethylphenyl)carbonyl]hexahydropyrrolo[3,4-c]pyrrol-2(1H)-yl}quinoxaline]	6.14
O=C(c1ccccc1-c1cccs1)N1CC2CN(c3nccc(-c4cccs4)n3)CC2C1 (stereo not drawn) [Example 37, 2-[(2-Thiophen-2-ylphenyl)carbonyl]-5-(4-thiophen-2-ylpyrimidin-2-yl)octahydro-pyrrolo[3,4-c]pyrrole]	6.74
O=C(c1ccccc1-c1ccccc1)N1CC2CN(c3nccc(-c4cccs4)n3)CC2C1 (stereo not drawn) [Example 38, 2-(Biphenyl-2-ylcarbonyl)-5-(4-thiophen-2-ylpyrimidin-2-yl)octahydropyrrolo[3,4-c]pyrrole]	6.29
Cc1cc(C)nc(N2CC3CN(C(=O)c4ccccc4-c4nccn4C)CC3C2)n1 (stereo not drawn) [Example 39, [5-(4,6-Dimethyl-pyrimidin-2-yl)-hexahydro-pyrrolo[3,4-c]pyrrol-2-yl]-[2-(1-methyl-1H-imidazol-2-yl)-phenyl]-methanone]	5.05
O=C(c1ccccc1-c1cccc(Cl)c1)N1CC2CN(c3cnc4ccccc4n3)CC2C1 (stereo not drawn) [Example 41, 2-{5-[(3′-Chlorobiphenyl-2-yl)carbonyl]hexahydropyrrolo[3,4-c]pyrrol-2(1H)-yl}quinoxaline]	6.45
